# In PMC9181188 (International Journal of Molecular Sciences, 2022):
# Where two headings read alike, the source gives them in different places.
# Columns and labels:
# P. aeruginosa ATCC 27853 = test: MIC, twofold microdilution, standard strain; format: cell-based; conditions: Pseudomonas aeruginosa, ATCC27853; 18 h of treatment; read-out: MIC P. aeruginosa ATCC 27853
# PC3 cells = test: MTT assay, PC3; format: cell-based, human; conditions: for IC50: human metastatic prostate cancer, 72 h, MTT, mean ± SD; for SI PC3: SI = IC50 for normal cell line (HaCaT)/IC50 cancer cell line
# [1] = test system: S. epidermidis KR 4358/2 840/19; test: MIC, clinical S. epidermidis strain; format: cell-based; conditions: Staphylococcus epidermidis, KR4358/2840/19; clinical S. epidermidis, quinolone-susceptible, 18 h of treatment; read-out: MIC KR 4358/2 840/19
# E. coli ATCC 25922 = test: MIC, twofold microdilution, standard strain; format: cell-based, Escherichia coli; conditions: for MIC: Escherichia coli, read-out: MIC E. coli ATCC 25922
# [2] = test system: S. epidermidis ATCC 12228; test: MIC, twofold microdilution, standard strain; format: cell-based; conditions: Staphylococcus epidermidis, ATCC12228; 18 h of treatment; read-out: MIC S. epidermidis ATCC 12228
# [3] = test system: S. epidermidis T 5501 851/19; test: MIC, clinical S. epidermidis strain; format: cell-based; conditions: Staphylococcus epidermidis, T5501851/19, read-out: MIC T 5501 851/19, quinolone-susceptible, 18 h of treatment
# SW620 cells = test: MTT assay, SW620; format: cell-based, human; conditions: for IC50: Homo sapiens, SW-620, 72 h, human metastatic colon cancer, 72 h, MTT, mean ± SD; for SI SW620: SI = IC50 for normal cell line (HaCaT)/IC50 cancer cell line
# S. aureus ATCC 25923 = test: MIC, twofold microdilution, standard strain; format: cell-based; conditions: Staphylococcus aureus, ATCC25923; 18 h of treatment; read-out: MIC S. aureus ATCC 25923
# [4] = molecular target: T1, S. aureus topoisomerase IV (Staphylococcus aureus, UniProt P0C1S7+P0C1U9); test: S. aureus topoisomerase IV decatenation assay; format: biochemical
# T1 construct: purchased Inspiralis
# T1 sequence (P0C1U9 whole entry): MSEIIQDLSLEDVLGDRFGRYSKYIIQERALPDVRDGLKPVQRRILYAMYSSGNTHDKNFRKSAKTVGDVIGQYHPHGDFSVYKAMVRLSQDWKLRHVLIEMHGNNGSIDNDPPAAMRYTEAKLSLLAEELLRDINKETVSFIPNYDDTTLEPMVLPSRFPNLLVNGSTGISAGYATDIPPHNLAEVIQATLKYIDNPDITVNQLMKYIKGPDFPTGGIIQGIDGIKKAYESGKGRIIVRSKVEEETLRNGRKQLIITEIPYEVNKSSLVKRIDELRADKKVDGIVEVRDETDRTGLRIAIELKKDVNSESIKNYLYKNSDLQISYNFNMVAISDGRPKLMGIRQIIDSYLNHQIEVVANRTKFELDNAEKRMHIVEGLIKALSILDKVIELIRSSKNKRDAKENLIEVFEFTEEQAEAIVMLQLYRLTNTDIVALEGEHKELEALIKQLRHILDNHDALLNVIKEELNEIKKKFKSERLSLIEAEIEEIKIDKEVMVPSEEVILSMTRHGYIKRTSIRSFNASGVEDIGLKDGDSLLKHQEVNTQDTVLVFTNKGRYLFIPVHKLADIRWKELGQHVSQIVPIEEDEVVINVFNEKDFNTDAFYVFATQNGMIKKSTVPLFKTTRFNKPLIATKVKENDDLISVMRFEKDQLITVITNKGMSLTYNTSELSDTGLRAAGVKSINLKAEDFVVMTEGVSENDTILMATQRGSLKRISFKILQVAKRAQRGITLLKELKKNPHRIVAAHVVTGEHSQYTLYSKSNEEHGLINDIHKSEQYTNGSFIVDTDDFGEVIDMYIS
# T1 sequence (P0C1S7 whole entry): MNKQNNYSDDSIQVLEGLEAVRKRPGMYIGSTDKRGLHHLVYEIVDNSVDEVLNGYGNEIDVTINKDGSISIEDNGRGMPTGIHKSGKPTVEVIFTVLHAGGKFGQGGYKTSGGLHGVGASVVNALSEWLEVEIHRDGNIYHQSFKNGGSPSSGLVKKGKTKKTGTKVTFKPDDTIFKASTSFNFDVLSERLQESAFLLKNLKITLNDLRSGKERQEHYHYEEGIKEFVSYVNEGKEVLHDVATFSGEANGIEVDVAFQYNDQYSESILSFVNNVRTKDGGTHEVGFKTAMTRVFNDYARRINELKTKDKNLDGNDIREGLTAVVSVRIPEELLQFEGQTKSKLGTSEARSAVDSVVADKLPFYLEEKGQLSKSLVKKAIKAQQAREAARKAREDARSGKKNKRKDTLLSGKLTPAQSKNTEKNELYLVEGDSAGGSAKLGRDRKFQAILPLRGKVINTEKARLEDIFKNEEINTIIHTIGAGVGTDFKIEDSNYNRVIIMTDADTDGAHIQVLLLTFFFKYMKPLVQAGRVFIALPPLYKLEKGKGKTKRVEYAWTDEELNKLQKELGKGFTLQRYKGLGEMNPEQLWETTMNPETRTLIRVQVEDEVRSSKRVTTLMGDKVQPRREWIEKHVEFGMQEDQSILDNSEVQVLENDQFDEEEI
# Protocol: The assay was performed using S. aureus topoisomerase IV […] kit (Inspiralis). Kinetoplast DNA (kDNA) was the substrate for topoisomerase IV.
# M. tuberculosis H37Rv = test: MABA (microplate Alamar blue assay) MIC; format: cell-based; conditions: Mycobacterium tuberculosis, 336 h, read-out: MIC M. tuberculosis H37Rv
# S. aureus NCTC 4163 = test: MIC, twofold microdilution, standard strain; format: cell-based; conditions: Staphylococcus aureus, NCTC4163; 18 h of treatment; read-out: MIC S. aureus NCTC 4163
# S. aureus ATCC 6538 = test: MIC, twofold microdilution, standard strain; format: cell-based; conditions: Staphylococcus aureus, ATCC6538; 18 h of treatment; read-out: MIC S. aureus ATCC 6538
# SW480 cells = test: MTT assay, SW480; format: cell-based, human; conditions: for IC50: Homo sapiens, SW480, 72 h, human primary colon cancer, 72 h, MTT, mean ± SD; for SI SW480: SI = IC50 for normal cell line (HaCaT)/IC50 cancer cell line
# [5] = test system: S. epidermidis T 5399 848/19; test: MIC, clinical S. epidermidis strain; format: cell-based; conditions: Staphylococcus epidermidis, T5399848/19, quinolone-susceptible, 18 h of treatment
# [6] = test system: S. epidermidis KR 4243 829/19; test: MIC, clinical S. epidermidis strain; format: cell-based; conditions: Staphylococcus epidermidis, KR4243829/19, quinolone-susceptible, 18 h of treatment
# [7] = test system: S. epidermidis KR 4313 834/19; test: MIC, clinical S. epidermidis strain; format: cell-based; conditions: Staphylococcus epidermidis, KR4313834/19, quinolone-susceptible, 18 h of treatment
# S. aureus DNA gyrase [8] = molecular target: T2, S. aureus DNA gyrase (Staphylococcus aureus, UniProt P0A0K8+P20831); test: biochemical
# T2 sequence (P20831 whole entry): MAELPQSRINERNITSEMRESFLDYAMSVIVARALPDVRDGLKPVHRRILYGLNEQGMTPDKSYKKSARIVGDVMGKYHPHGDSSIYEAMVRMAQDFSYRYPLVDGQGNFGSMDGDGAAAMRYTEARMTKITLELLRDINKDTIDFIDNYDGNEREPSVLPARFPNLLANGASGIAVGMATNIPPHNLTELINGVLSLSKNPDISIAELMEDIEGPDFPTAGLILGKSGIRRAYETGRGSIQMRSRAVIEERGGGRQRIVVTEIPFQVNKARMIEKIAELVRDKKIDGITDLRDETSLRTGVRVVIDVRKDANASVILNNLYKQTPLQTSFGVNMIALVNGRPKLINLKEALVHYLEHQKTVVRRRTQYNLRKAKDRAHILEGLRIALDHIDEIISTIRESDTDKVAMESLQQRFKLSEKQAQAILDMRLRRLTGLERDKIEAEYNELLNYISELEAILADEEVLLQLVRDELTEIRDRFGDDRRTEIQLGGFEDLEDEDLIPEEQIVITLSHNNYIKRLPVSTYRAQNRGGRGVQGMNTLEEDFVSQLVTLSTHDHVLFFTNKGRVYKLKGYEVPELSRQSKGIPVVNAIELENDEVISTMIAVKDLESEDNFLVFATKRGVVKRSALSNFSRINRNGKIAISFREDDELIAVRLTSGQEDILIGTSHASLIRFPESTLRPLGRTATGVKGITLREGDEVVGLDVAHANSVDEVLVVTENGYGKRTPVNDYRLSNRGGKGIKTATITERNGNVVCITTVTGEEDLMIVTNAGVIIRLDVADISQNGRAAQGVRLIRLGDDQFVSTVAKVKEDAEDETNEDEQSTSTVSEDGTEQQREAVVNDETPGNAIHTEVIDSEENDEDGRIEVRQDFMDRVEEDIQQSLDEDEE
# T2 sequence (P0A0K8 whole entry): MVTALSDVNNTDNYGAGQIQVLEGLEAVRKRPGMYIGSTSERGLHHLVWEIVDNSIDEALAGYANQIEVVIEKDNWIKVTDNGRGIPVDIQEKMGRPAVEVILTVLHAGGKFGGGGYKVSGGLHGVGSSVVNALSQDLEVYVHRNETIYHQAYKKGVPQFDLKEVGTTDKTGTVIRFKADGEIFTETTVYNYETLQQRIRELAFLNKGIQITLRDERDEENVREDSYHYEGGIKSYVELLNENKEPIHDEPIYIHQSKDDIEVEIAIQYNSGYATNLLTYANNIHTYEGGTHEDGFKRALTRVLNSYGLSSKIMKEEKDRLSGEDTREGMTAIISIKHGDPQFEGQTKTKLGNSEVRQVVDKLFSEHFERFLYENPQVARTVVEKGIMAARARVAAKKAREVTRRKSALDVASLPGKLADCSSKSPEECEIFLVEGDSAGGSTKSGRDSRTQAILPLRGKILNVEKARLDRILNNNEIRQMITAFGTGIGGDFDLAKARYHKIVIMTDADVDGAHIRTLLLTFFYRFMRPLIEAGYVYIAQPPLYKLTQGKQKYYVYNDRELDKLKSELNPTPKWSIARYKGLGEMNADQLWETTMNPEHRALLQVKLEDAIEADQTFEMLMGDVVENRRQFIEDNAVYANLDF
# Protocol: (§1) The assay was performed using S. aureus DNA Gyrase Supercoiling kit (Inspiralis). […] Samples were vortexed, centrifuged, and 20 µL of the aqueous phase of each sample was loaded onto a 1% agarose gel and left for 30 min prior to electrophoresis to allow diffusion of salt. Electrophoresis was conducted in TAE buffer for 3 h at 50 V. Gels were stained with ethidium bromide and visualized under UV light in a transilluminator (ChemiDoc MP, Bio Rad, Warsaw, Poland).
# [9] = test system: S. epidermidis KR 4047 825/19; test: MIC, clinical S. epidermidis strain; format: cell-based; conditions: Staphylococcus epidermidis, KR4047825/19, quinolone-resistant, 18 h of treatment
# [10] = test system: S. epidermidis ATCC 35984; test: MIC, twofold microdilution, standard strain; format: cell-based; conditions: Staphylococcus epidermidis, ATCC35984; 18 h of treatment; read-out: MIC S. epidermidis ATCC 35984
# S. aureus ATCC 29213 = test: MIC, twofold microdilution, standard strain; format: cell-based; conditions: Staphylococcus aureus, ATCC29213; 18 h of treatment; read-out: MIC S. aureus ATCC 29213
# [11] = test system: M. tuberculosis Spec. 192 (Sensitive to Tuberculostatics); test: MABA (microplate Alamar blue assay) MIC; format: cell-based; conditions: Mycobacterium tuberculosis, 336 h, read-out: MIC M. tuberculosis Spec. 192 (Sensitive to Tuberculostatics)
# [12] = test system: S. epidermidis T 5253 845/19; test: MIC, clinical S. epidermidis strain; format: cell-based; conditions: Staphylococcus epidermidis, T5253845/19, quinolone-resistant, 18 h of treatment
# [13] = test system: standard staphylococci (S. aureus, S. epidermidis); test: MIC, standard Gram-positive strains as a group; format: cell-based; conditions: Staphylococcus aureus; range over standard Gram-positive strains; read-out: MIC against standard staphylococci
# HaCaT cells = test: MTT assay, HaCaT normal cells; format: cell-based; conditions: human immortal keratinocyte cell line, 72 h, mean ± SD
# M. tuberculosis strains = test: MABA MIC, mycobacterial strains as a group; format: cell-based; conditions: Mycobacterium tuberculosis, read-out: MIC antimycobacterial (strain not specified)
# [14] = test system: quinolone-susceptible clinical coagulase-negative staphylococci; test: MIC, quinolone-susceptible clinical isolates as a group; format: cell-based; conditions: Staphylococcus epidermidis, five quinolone-susceptible isolates, read-out: MIC against quinolone-susceptible clinical isolates
# [15] = test system: SW480, SW620, and PC3 cancer cell lines; test: MTT assay, cancer cell lines as a group; format: cell-based, human; conditions: Homo sapiens, 72 h, all three cancer cell lines (SW480, SW620, PC3), read-out: IC50 against all tested cancer cell lines
# [16] = test system: quinolone-resistant isolates (KR 4047 and T5253); test: MIC, quinolone-resistant clinical isolates as a group; format: cell-based; conditions: Staphylococcus epidermidis, read-out: MIC against quinolone-resistant clinical isolates
# S. aureus DNA gyrase [17] = molecular target: T2, S. aureus DNA gyrase; conditions: read-out: IC50 for Gyrase; inhibition of DNA supercoiling, 30 min at 37 °C
# Protocol: as §1
SMILES,MIC (P. aeruginosa ATCC 27853) [µg/mL],"IC50 (PC3 cells; Homo sapiens, PC-3, 72 h) [µM]",SI PC3 (PC3 cells),MIC [1] [µg/mL],MIC [2] [µg/mL],MIC [3] [µg/mL],IC50 (SW620 cells) [µM],SI SW620 (SW620 cells),MIC (S. aureus ATCC 25923) [µg/mL],MIC (S. aureus NCTC 4163) [µg/mL],MIC (S. aureus ATCC 6538) [µg/mL],IC50 (SW480 cells) [µM],SI SW480 (SW480 cells),MIC [5] [µg/mL],MIC [6] [µg/mL],MIC [7] [µg/mL],MIC [9] [µg/mL],MIC [10] [µg/mL],MIC (S. aureus ATCC 29213) [µg/mL],MIC [12] [µg/mL],other results
"COc1c(N2CC3CCCN(C(C)=O)C3C2)c(F)cc2c(=O)c(C(=O)O)cn(C3CC3)c12 (stereo not shown) [Compound 14m, 7-(1-Acetyl-octahydro-pyrrolo[3,4-b]pyridin-6-yl)-1-cyclopropyl-6-fluoro-8-methoxy-4-oxo-1,4-dihydro-quinoline-3-carboxylic acid]",> 512,12.5 ± 1.6,6.9,0.5,0.5,0.5,18.4 ± 3.2,4.7,0.25,0.25,0.25,14.3 ± 3.2,6.0,0.5,0.5,0.5,32,0.5,0.5,32,"MIC E. coli ATCC 25922 (E. coli ATCC 25922; 18 h of treatment): 2 to 16 µg/mL; MIC (E. coli ATCC 25922; ATCC25922, 18 h of treatment): 8 µg/mL; IC50 [4]: 135 µM; MIC (M. tuberculosis H37Rv; 2 weeks of treatment): 64 µg/mL; IC50 (S. aureus DNA gyrase [8]): 133 µM; MIC ([11]; 2 weeks of treatment): 64 µg/mL; MIC [13]: 0.25 to 1 µg/mL; IC50 (HaCaT cells): 86.5 ± 2.1 µM; MIC (M. tuberculosis strains; summary over strains): 64 µg/mL; MIC [14]: 0.5 µg/mL"
"C/C=C/C(=O)N1CCCC2CN(c3c(F)cc4c(=O)c(C(=O)O)cn(C5CC5)c4c3OC)CC21 (stereo not shown) [Compound 1m, 7-{1-(E)-But-2-enoyl-octahydro-pyrrolo[3,4-b]pyridin-6-yl}-1-cyclopropyl-6-fluoro-8-methoxy-4-oxo-1,4-dihydro-quinoline-3-carboxylic acid]",> 512,23.8 ± 3.4,2.7,1,1,1,24.8 ± 3.2,2.6,0.5,0.5,0.5,31.6 ± 4.7,2.0,1,0.5,1,32,0.5,0.5,64,"MIC E. coli ATCC 25922 (E. coli ATCC 25922; 18 h of treatment): 2 to 16 µg/mL; MIC (E. coli ATCC 25922; ATCC25922, 18 h of treatment): 16 µg/mL; IC50 [4]: 130 µM; MIC (M. tuberculosis H37Rv): 64 µg/mL; IC50 (S. aureus DNA gyrase [8]): > 136 µM; MIC [11]: 64 µg/mL; MIC [13]: 0.5 to 2 µg/mL; IC50 (HaCaT cells): 64.1 ± 2.3 µM; MIC (M. tuberculosis strains): 64 µg/mL; MIC ([14]; 18 h): 0.5 to 1 µg/mL"
"CCCCCCCC(=O)N1CCCC2CN(c3c(F)cc4c(=O)c(C(=O)O)cn(C5CC5)c4c3OC)CC21 (stereo not shown) [Compound 15m, 1-Cyclopropyl-6-fluoro-8-methoxy-7-(1-octanoyl-octahydro-pyrrolo[3,4-b]pyridin-6-yl)-4-oxo-1,4-dihydro-quinoline-3-carboxylic acid]",512,< 5,28.1,8,4,8,4.7 ± 1.5,18.6,4,4,4,3.2 ± 0.8,27.3,4,8,8,8,8,4,8,"IC50 (PC3 cells): 3.1 ± 0.9 µM; MIC (E. coli ATCC 25922; ATCC25922, 18 h): 128 µg/mL; MIC (M. tuberculosis H37Rv; 2 weeks of treatment): 256 µg/mL; IC50 [15]: < 5 µM; MIC [11]: 128 µg/mL; MIC [13]: 4 to 8 µg/mL; IC50 (HaCaT cells): 87.2 ± 3.6 µM; MIC [16]: 8 µg/mL; MIC (M. tuberculosis strains): ≥ 128 µg/mL"
CCC=CCC=CCC=CCC=CCC=CCC=CCCC(=O)N1CCN(c2cc3c(cc2F)c(=O)c(C(=O)O)cn3C2CC2)CC1 [Compound 8],–,–,–,–,–,–,–,–,–,–,–,–,–,–,–,–,–,–,–,–,"IC50 (S. aureus DNA gyrase [17]): > 99.7 µM; IC50 ([4]; read-out: IC50 for Topo IV, inhibition of kDNA decatenation, 30 min at 37 °C): > 99.7 µM"
